Results published in patent US10450549B2, “Aryloxyphenoxypropionate tolerance in turfrgass species and use of AAD1 as a selectable marker” (Dow AgroSciences, LLC, priority 2004, dated 2019).

How the values were obtained:
AAD1 (v1) = biological target: T1, AAD1 (v1) (Sphingobium herbicidovorans, UniProt Q8KSC8); experiment: Colorimetric phenol detection assay of AAD1 (v1) activity (purified enzyme or E. coli extract); type: biochemical; conditions: Table 4, substrate 1 mM
T1 construct: made in house; host or cells: E. coli BL-21 Star (DE3), plasmid pDAB3203
T1 sequence (Q8KSC8 whole entry): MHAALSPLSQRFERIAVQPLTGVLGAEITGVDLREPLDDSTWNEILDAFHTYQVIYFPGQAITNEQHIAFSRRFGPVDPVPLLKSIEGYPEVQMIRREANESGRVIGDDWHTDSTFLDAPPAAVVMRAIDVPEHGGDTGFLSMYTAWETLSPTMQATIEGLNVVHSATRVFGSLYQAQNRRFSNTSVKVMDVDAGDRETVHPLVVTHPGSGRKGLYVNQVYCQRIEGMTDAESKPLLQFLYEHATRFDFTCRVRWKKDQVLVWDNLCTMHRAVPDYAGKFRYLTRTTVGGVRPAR

[1] = system: AAD1 (v3)-transformed T1 Arabidopsis; experiment: T1 Arabidopsis response to postemergence herbicide (2,4-D, dichlorprop, haloxyfop, fluroxypyr), % visual injury 2 WAT: AAD1 (v3) transformants; type: in vivo, Arabidopsis thaliana; conditions: for % Injury Ave / % Injury Range / % Injury 20-40% / % Injury <20% / % Injury >40%: AAD1 v3, 2 WAT; for resistance/tolerance in AAD1 (v3)-transformed T1 Arabidopsis: haloxyfop 400-1,600 g ae/ha, fluroxypyr; for % Injury 20-40% / % Injury <20% / % Injury >40%: number of individuals
Experimental: Freshly harvested T1 seed (transformed with native [AAD1 (v2)] or plant optimized [AAD1 (v3)] gene) was allowed to dry for 7 days at room temperature. T1 seed was sown in 26.5×51-cm germination trays (T.O. Plastics Inc., Clearwater, Minn.), each receiving a 200 mg aliquots of stratified T1 seed (˜10,000 seed) that had previously been suspended in 40 ml of 0.1% agarose solution and stored at 4° C. for 2 days to complete dormancy requirements and ensure synchronous seed germination.
Sunshine Mix LP5 (Sun Gro Horticulture Inc., Bellevue, Wash.) was covered with fine vermiculite and subirrigated with Hoagland's solution until wet, then allowed to gravity drain. Each 40 ml aliquot of stratified seed was sown evenly onto the vermiculite with a pipette and covered with humidity domes (KORD Products, Bramalea, Ontario, Canada) for 4-5 days. Domes were removed 1 day prior to initial transformant selection using glufosinate postemergence spray (selecting for the co-transformed PAT gene).
Five to six days after planting (DAP) and again 10 DAP, T1 plants (cotyledon and 2-4-1f stage, respectively) were sprayed with a 0.2% solution of Liberty herbicide (200 g ai/L glufosinate, Bayer Crop Sciences, Kansas City, Mo.) at a spray volume of 10 ml/tray (703 L/ha) using a DeVilbiss compressed air spray tip to deliver an effective rate of 280 g ai/ha glufosinate per application. Survivors (plants actively growing) were identified 5-7 days after the final spraying and transplanted individually into 3-inch pots prepared with potting media (Metro Mix 360). Transplanted plants were covered with humidity domes for 3-4 days and placed in a 22° C. growth chamber as before. Domes were subsequently removed and plants moved to the greenhouse (22+5° C., 50+30% RH, 14 h light:10 dark, minimum 500 μE/m^2s^1 natural+supplemental light) at least 1 day prior to testing for the ability of AAD1 (v3) (plant optimized gene) or AAD1 (v2) (native microbial gene) to provide phenoxy auxin herbicide resistance.
(§1) Random individual T1 plants selected for glufosinate resistance above were confirmed for expression of the PAT protein using a PAT ELISA kit (Part no. 7000045, Strategic Diagnostics, Inc., Newark, Del.) to non-destructively confirm fidelity of selection process (manufacturer's protocol). Plants were then randomly assigned to various rates of phenoxy herbicides (dichlorprop or 2,4-D). […] Elevated rates were applied in subsequent trials (50, 200, 800, or 3200 g ae/ha).
(§2) All auxin herbicide applications were made using the DeVilbiss sprayer as described above to apply 703 L/ha spray volume (0.4 ml solution/3-inch pot) or applied by track sprayer in a 187 L/ha spray volume. […] Dichlorprop used was technical grade (Sigma, St. Louis, Mo.) dissolved in DMSO and diluted in water (<1% DMSO final concentration). As herbicide rates increased beyond 800 g ae/ha, the pH of the spray solution became exceedingly acidic, burning the leaves of young, tender Arabidopsis plants and complicating evaluation of the primary effects of the herbicides. It became standard practice to apply these high rates of phenoxy herbicides in 200 mM Tris buffer (pH 9.0) to a final pH of ˜7-8.
(§3) Although Arabidopsis, being a dicot, is not an optimal system for testing ACCase-inhibiting AOPP grass herbicides, AAD1 (v3)-transformed T1 plants were subjected to elevated rates (400-1600 g ae/ha) of RS-haloxyfop acid (internally synthesized) that do cause growth abnormalities and death of wildtype Arabidopsis using the DeVilbiss sprayer as described above. Injury ratings were taken 7 and 14 days after treatment. Likewise, T1 individuals were treated with the pyridyloxyacetate auxin herbicide, fluroxypyr.
Table 16. […] Response is presented in terms of % visual injury 2 WAT. […] Since each T1 is an independent transformation event, one can expect significant variation of individual T1 responses within a given rate. An arithmetic mean and standard deviation is presented for each treatment. […]

Wildtype Arabidopsis = experiment: T1 Arabidopsis spray test, % visual injury 2 WAT: wildtype control; type: in vivo, Arabidopsis thaliana; conditions: Wildtype, 2 WAT; for % Injury 20-40% / % Injury <20% / % Injury >40%: number of individuals
Description: as §1, §2, §3
Table 16. […] Response is presented in terms of % visual injury 2 WAT. […] Since each T1 is an independent transformation event, one can expect significant variation of individual T1 responses within a given rate. An arithmetic mean and standard deviation is presented for each treatment. The range in individual response is also indicated in the last column for each rate and transformation. PAT/Cry1F-transformed Arabidopsis served as an auxin-sensitive transformed control. Wildtype Arabidopsis is untransformed.
(§4) Table 17. T1 Arabidopsis response to a range of dichlroprop rates applied postemergence. Response is presented in terms of % visual injury 2 WAT. […] Since each T1 is an independent transformation event, one can expect significant variation of individual T1 responses within a given rate. An arithmetic mean and standard deviation is presented for each treatment. The range in individual response is also indicated in the last column for each rate and transformation. PAT/Cry1F-transformed Arabidopsis served as an auxin-sensitive transformed control. Wildtype Arabidopsis is untransformed.
as §4, with “18.” for “17.”, “haloxyfop” for “dichlroprop”, “postemergence at artificially high rates attempting to show tolerance of the dicot Arabidopsis to the graminicide.” for “postemergence.”

## CC(Oc1ccc(Oc2ncc(C(F)(F)F)cc2Cl)cc1)C(=O)O (stereo not drawn) [haloxyfop]
AAD1 (v1); 1 μg purified AAD1 (v1) per 0.16 ml assay
  A510, AAD1: 0.172
AAD1 (v1); 10 μg purified AAD1 (v1) per 0.16 ml assay
  A510, AAD1 (10x): 1.63
[1]; 100 g ae/ha
  % Injury Ave: 0.0%
  % Injury Range: 0%
  % Injury 20-40%: 0
  % Injury <20%: 4
  % Injury >40%: 0
[1]; 200 g ae/ha
  % Injury Ave: 0.0%
  % Injury Range: 0%
  % Injury 20-40%: 0
  % Injury <20%: 4
  % Injury >40%: 0
[1]; 400 g ae/ha
  % Injury Ave: 6.3%
  % Injury Range: 0-20%
  % Injury 20-40%: 1
  % Injury <20%: 3
  % Injury >40%: 0
[1]; 800 g ae/ha
  % Injury Ave: 46.3%
  % Injury Range: 0-85%
  % Injury 20-40%: 1
  % Injury <20%: 1
  % Injury >40%: 2
[1]; 1600 g ae/ha
  % Injury Ave: 65.0%
  % Injury Range: 0-100%
  % Injury 20-40%: 0
  % Injury <20%: 1
  % Injury >40%: 3
[1]
  resistance/tolerance in AAD1 (v3)-transformed T1 Arabidopsis: increased tolerance
Wildtype Arabidopsis; 100 g ae/ha
  % Injury Ave: 0.0%
  % Injury Range: 0%
  % Injury 20-40%: 0
  % Injury <20%: 3
  % Injury >40%: 0
Wildtype Arabidopsis; 200 g ae/ha
  % Injury Ave: 0.0%
  % Injury Range: 0%
  % Injury 20-40%: 0
  % Injury <20%: 3
  % Injury >40%: 0
Wildtype Arabidopsis; 400 g ae/ha
  % Injury Ave: 20.0%
  % Injury Range: 20%
  % Injury 20-40%: 3
  % Injury <20%: 0
  % Injury >40%: 0
Wildtype Arabidopsis; 800 g ae/ha
  % Injury Ave: 73.3%
  % Injury Range: 70-85%
  % Injury 20-40%: 0
  % Injury <20%: 0
  % Injury >40%: 3
Wildtype Arabidopsis; 1600 g ae/ha
  % Injury Ave: 93.3%
  % Injury Range: 80-100%
  % Injury 20-40%: 0
  % Injury <20%: 0
  % Injury >40%: 3

## Nc1c(Cl)c(F)nc(OCC(=O)O)c1Cl [Fluroxypyr]
[1]
  resistance/tolerance in AAD1 (v3)-transformed T1 Arabidopsis: No resistance was observed
